69 molecules from US20230123334A1, “AMINO LIPID COMPOUND, PREPARATION METHOD THEREFOR, AND APPLICATION THEREOF” (SHENZHEN SHENXIN BIOTECHNOLOGY CO., LTD., priority 2020, published 2023) can be followed below.

For this assay, the system named is HEK293 cells. Description: Preliminary screening as DNA vectors, GFP transfection of HEK293 cells. It counts as cell-based. Particulars: amino lipid/DOPE liposome with 75 ng plasmid DNA (psin-EGFP-IRES-Puro); number of GFP-expressing cells divided by total nuclei (Hoechst). Put shortly:
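First, amino lipid and DOPE were vortexed in sodium acetate buffer (pH 5.6) to form liposomes. Next, these were held with 75 ng EGFP plasmid at room temperature for 30 min. Finally, HEK293 cells were added, cultured at 37° C., Hoechst-stained, and GFP+/total nuclei scored by imaging.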

Molecules are shown by their SMILES.

Take `CCCCCCCCSc1nc(NCCCCCCC)nc(NCCN2CCOCC2)n1` [S8N7 D2]: the “Absolute DNA transfection efficiency in HEK293 cells” value (from here on “Absolute DNA transfection efficiency”) is given as 0.4%. On to `CCCCCCCCSc1nc(NCCCCCCC)nc(NCCN2CCCC2)n1` [S8N7 D3], for which the “Absolute DNA transfection efficiency” value is reported as 3.9%. To `CCCCCCCCSc1nc(NCCCCCCC)nc(NCCN2CCCCC2)n1` [S8N7 D4] belongs 3.8%; to `CCCCCCCCSc1nc(NCCCCCCC)nc(NCCN2CCN(C)CC2)n1` [S8N7 D5], 3.6%; to `CCCCCCCCSc1nc(NCCCCCCC)nc(NCCCN(C)C)n1` [S8N7 D6], 8.5%.

Regarding `CCCCCCCCSc1nc(NCCCCCCC)nc(NCCN(CC)CC)n1` [S8N7 D7], the “Absolute DNA transfection efficiency” value is 1.4%. On to `CCCCCCCCSc1nc(NCCCCCCC)nc(NCCCN2CCOCC2)n1` [S8N7 D8], for which the “Absolute DNA transfection efficiency” value is on record as 0.8%. `CCCCCCCCSc1nc(NCCCCCCC)nc(NCCCN2CCN(C)CC2)n1` [S8N7 D9]: the “Absolute DNA transfection efficiency” value was determined as 3.6%.

On to `CCCCCCCCSc1nc(NCCCCCCC)nc(NCC2CCN(C)CC2)n1` [S8N7 D10], for which the “Absolute DNA transfection efficiency” value is reported as 1.2%. The result for `CCCCCCCCNc1nc(NCCN(C)C)nc(SCCCCCCCC)n1` [S8N8 D1] reads 9.3%.

Consider `CCCCCCCCNc1nc(NCCN2CCOCC2)nc(SCCCCCCCC)n1` [S8N8 D2], for which the “Absolute DNA transfection efficiency” value amounted to 1.5%.

As to `CCCCCCCCNc1nc(NCCN2CCCC2)nc(SCCCCCCCC)n1` [S8N8 D3], the “Absolute DNA transfection efficiency” value came out at 8.5%. For `CCCCCCCCNc1nc(NCCN2CCCCC2)nc(SCCCCCCCC)n1` [S8N8 D4], the “Absolute DNA transfection efficiency” value came to 2.9%. To `CCCCCCCCNc1nc(NCCN2CCN(C)CC2)nc(SCCCCCCCC)n1` [S8N8 D5] belongs 9.1%. The result for `CCCCCCCCNc1nc(NCCCN(C)C)nc(SCCCCCCCC)n1` [S8N8 D6] reads 8.7%; that for `CCCCCCCCNc1nc(NCCN(CC)CC)nc(SCCCCCCCC)n1` [S8N8 D7], 5.2%. The result for `CCCCCCCCNc1nc(NCCCN2CCOCC2)nc(SCCCCCCCC)n1` [S8N8 D8] reads 2.9%; that for `CCCCCCCCNc1nc(NCCCN2CCN(C)CC2)nc(SCCCCCCCC)n1` [S8N8 D9], 7.4%; that for `CCCCCCCCNc1nc(NCC2CCN(C)CC2)nc(SCCCCCCCC)n1` [S8N8 D10], 6.1%. Regarding `CCCCCCCCCNc1nc(NCCN(C)C)nc(SCCCCCCCC)n1` [S8N9 D1], the “Absolute DNA transfection efficiency” value is 33.6%.

Regarding `CCCCCCCCCNc1nc(NCCN2CCOCC2)nc(SCCCCCCCC)n1` [S8N9 D2], the “Absolute DNA transfection efficiency” value is recorded as 10.7%.

`CCCCCCCCCNc1nc(NCCN2CCCC2)nc(SCCCCCCCC)n1` [S8N9 D3]: the “Absolute DNA transfection efficiency” value was determined as 32.7%.

On to `CCCCCCCCCNc1nc(NCCN2CCCCC2)nc(SCCCCCCCC)n1` [S8N9 D4], for which the “Absolute DNA transfection efficiency” value was 15.5%. The result for `CCCCCCCCCNc1nc(NCCN2CCN(C)CC2)nc(SCCCCCCCC)n1` [S8N9 D5] reads 35.9%; that for `CCCCCCCCCNc1nc(NCCCN(C)C)nc(SCCCCCCCC)n1` [S8N9 D6], 33.3%. Regarding `CCCCCCCCCNc1nc(NCCN(CC)CC)nc(SCCCCCCCC)n1` [S8N9 D7], the “Absolute DNA transfection efficiency” value turned out to be 26.0%.

`CCCCCCCCCNc1nc(NCCCN2CCOCC2)nc(SCCCCCCCC)n1` [S8N9 D8]: the “Absolute DNA transfection efficiency” value turned out to be 14.8%. As for `CCCCCCCCCNc1nc(NCCCN2CCN(C)CC2)nc(SCCCCCCCC)n1` [S8N9 D9], the “Absolute DNA transfection efficiency” value was determined as 32.1%.

In the case of `CCCCCCCCCNc1nc(NCC2CCN(C)CC2)nc(SCCCCCCCC)n1` [S8N9 D10], the “Absolute DNA transfection efficiency” value is listed as 36.3%. To `CCCCCCCCCCCNc1nc(NCCN(C)C)nc(SCCCCCCCC)n1` [S8N11 D1] belongs 42.2%; to `CCCCCCCCCCCNc1nc(NCCN2CCOCC2)nc(SCCCCCCCC)n1` [S8N11 D2], 25.4%; to `CCCCCCCCCCCNc1nc(NCCN2CCCC2)nc(SCCCCCCCC)n1` [S8N11 D3], 52.0%.

In the case of `CCCCCCCCCCCNc1nc(NCCN2CCCCC2)nc(SCCCCCCCC)n1` [S8N11 D4], the “Absolute DNA transfection efficiency” value was determined as 14.3%.

`CCCCCCCCCCCNc1nc(NCCN2CCN(C)CC2)nc(SCCCCCCCC)n1` [S8N11 D5]: the “Absolute DNA transfection efficiency” value is given as 52.7%. `CCCCCCCCCCCNc1nc(NCCCN(C)C)nc(SCCCCCCCC)n1` [S8N11 D6]: the “Absolute DNA transfection efficiency” value worked out at 99.4%.

On to `CCCCCCCCCCCNc1nc(NCCN(CC)CC)nc(SCCCCCCCC)n1` [S8N11 D7], for which the “Absolute DNA transfection efficiency” value came to 24.6%. Consider `CCCCCCCCCCCNc1nc(NCCCN2CCOCC2)nc(SCCCCCCCC)n1` [S8N11 D8], for which the “Absolute DNA transfection efficiency” value is recorded as 13.7%. The result for `CCCCCCCCCCCNc1nc(NCCCN2CCN(C)CC2)nc(SCCCCCCCC)n1` [S8N11 D9] reads 63.6%. The result for `CCCCCCCCCCCNc1nc(NCC2CCN(C)CC2)nc(SCCCCCCCC)n1` [S8N11 D10] reads 46.3%. As to `CCCCCCCCCCCCNc1nc(NCCN(C)C)nc(SCCCCCCCC)n1` [S8N12 D1], the “Absolute DNA transfection efficiency” value worked out at 22.1%. As for `CCCCCCCCCCCCNc1nc(NCCN2CCOCC2)nc(SCCCCCCCC)n1` [S8N12 D2], the “Absolute DNA transfection efficiency” value was found to be 38.1%. Take `CCCCCCCCCCCCNc1nc(NCCN2CCCC2)nc(SCCCCCCCC)n1` [S8N12 D3]: the “Absolute DNA transfection efficiency” value stood at 17.8%. As to `CCCCCCCCCCCCNc1nc(NCCN2CCCCC2)nc(SCCCCCCCC)n1` [S8N12 D4], the “Absolute DNA transfection efficiency” value turned out to be 7.6%. On to `CCCCCCCCCCCCNc1nc(NCCN2CCN(C)CC2)nc(SCCCCCCCC)n1` [S8N12 D5], for which the “Absolute DNA transfection efficiency” value came out at 41.7%. In the case of `CCCCCCCCCCCCNc1nc(NCCCN(C)C)nc(SCCCCCCCC)n1` [S8N12 D6], the “Absolute DNA transfection efficiency” value stood at 78.3%. As to `CCCCCCCCCCCCNc1nc(NCCN(CC)CC)nc(SCCCCCCCC)n1` [S8N12 D7], the “Absolute DNA transfection efficiency” value is 9.5%.

As to `CCCCCCCCCCCCNc1nc(NCCCN2CCOCC2)nc(SCCCCCCCC)n1` [S8N12 D8], the “Absolute DNA transfection efficiency” value worked out at 16.1%. To `CCCCCCCCCCCCNc1nc(NCCCN2CCN(C)CC2)nc(SCCCCCCCC)n1` [S8N12 D9] belongs 48.3%. To `CCCCCCCCCCCCNc1nc(NCC2CCN(C)CC2)nc(SCCCCCCCC)n1` [S8N12 D10] belongs 44.5%.

With `CCCCCCCCCCCCCNc1nc(NCCN(C)C)nc(SCCCCCCCC)n1` [S8N13 D1], the “Absolute DNA transfection efficiency” value is given as 18.3%.

Turning to `CCCCCCCCCCCCCNc1nc(NCCN2CCOCC2)nc(SCCCCCCCC)n1` [S8N13 D2], the “Absolute DNA transfection efficiency” value is listed as 19.7%. With `CCCCCCCCCCCCCNc1nc(NCCN2CCCC2)nc(SCCCCCCCC)n1` [S8N13 D3], the “Absolute DNA transfection efficiency” value worked out at 30.5%. `CCCCCCCCCCCCCNc1nc(NCCN2CCCCC2)nc(SCCCCCCCC)n1` [S8N13 D4]: the “Absolute DNA transfection efficiency” value is reported as 3.8%. To `CCCCCCCCCCCCCNc1nc(NCCN2CCN(C)CC2)nc(SCCCCCCCC)n1` [S8N13 D5] belongs 28.3%; to `CCCCCCCCCCCCCNc1nc(NCCCN(C)C)nc(SCCCCCCCC)n1` [S8N13 D6], 55.1%. Turning to `CCCCCCCCCCCCCNc1nc(NCCN(CC)CC)nc(SCCCCCCCC)n1` [S8N13 D7], the “Absolute DNA transfection efficiency” value turned out to be 8.9%. `CCCCCCCCCCCCCNc1nc(NCCCN2CCOCC2)nc(SCCCCCCCC)n1` [S8N13 D8]: the “Absolute DNA transfection efficiency” value is on record as 13.3%.

For `CCCCCCCCCCCCCNc1nc(NCCCN2CCN(C)CC2)nc(SCCCCCCCC)n1` [S8N13 D9], the “Absolute DNA transfection efficiency” value came to 27.9%.

On to `CCCCCCCCCCCCCNc1nc(NCC2CCN(C)CC2)nc(SCCCCCCCC)n1` [S8N13 D10], for which the “Absolute DNA transfection efficiency” value was determined as 18.7%. To `CCCCCCCCCCCCCCCNc1nc(NCCN(C)C)nc(SCCCCCCCC)n1` [S8N15 D1] belongs 8.0%. To `CCCCCCCCCCCCCCCNc1nc(NCCN2CCOCC2)nc(SCCCCCCCC)n1` [S8N15 D2] belongs 4.9%; to `CCCCCCCCCCCCCCCNc1nc(NCCN2CCCC2)nc(SCCCCCCCC)n1` [S8N15 D3], 9.9%. Consider `CCCCCCCCCCCCCCCNc1nc(NCCN2CCCCC2)nc(SCCCCCCCC)n1` [S8N15 D4], for which the “Absolute DNA transfection efficiency” value amounted to 0.9%. For the molecule `CCCCCCCCCCCCCCCNc1nc(NCCN2CCN(C)CC2)nc(SCCCCCCCC)n1` [S8N15 D5], the “Absolute DNA transfection efficiency” value is 10.4%. For `CCCCCCCCCCCCCCCNc1nc(NCCCN(C)C)nc(SCCCCCCCC)n1` [S8N15 D6], the “Absolute DNA transfection efficiency” value was 23.7%. The result for `CCCCCCCCCCCCCCCNc1nc(NCCN(CC)CC)nc(SCCCCCCCC)n1` [S8N15 D7] reads 2.2%; that for `CCCCCCCCCCCCCCCNc1nc(NCCCN2CCOCC2)nc(SCCCCCCCC)n1` [S8N15 D8], 7.7%. The result for `CCCCCCCCCCCCCCCNc1nc(NCCCN2CCN(C)CC2)nc(SCCCCCCCC)n1` [S8N15 D9] reads 12.4%. Turning to `CCCCCCCCCCCCCCCNc1nc(NCC2CCN(C)CC2)nc(SCCCCCCCC)n1` [S8N15 D10], the “Absolute DNA transfection efficiency” value is recorded as 22.6%.
